Experiments:
[1] = Clearance in human liver microsomes at 1 umol/L after 20 mins by HPLC analysis in presence of NADPH; format: ADME, Microsome; settings: read-out: CLH
[2] = Clearance in rat liver microsomes at 1 umol/L after 20 mins by HPLC analysis in presence of NADPH; format: ADME, Microsome; settings: read-out: CLH
[3] = target: T1, Peroxisome proliferator-activated receptor gamma (Homo sapiens, UniProt P37231); experiment: Transactivation of human PPARgamma1 expressed in CHO-K1 cells co-expressing RXRalpha and PPRE after 1 day by luciferase reporter gene assay; format: cell-based
T1 sequence (P37231 whole entry): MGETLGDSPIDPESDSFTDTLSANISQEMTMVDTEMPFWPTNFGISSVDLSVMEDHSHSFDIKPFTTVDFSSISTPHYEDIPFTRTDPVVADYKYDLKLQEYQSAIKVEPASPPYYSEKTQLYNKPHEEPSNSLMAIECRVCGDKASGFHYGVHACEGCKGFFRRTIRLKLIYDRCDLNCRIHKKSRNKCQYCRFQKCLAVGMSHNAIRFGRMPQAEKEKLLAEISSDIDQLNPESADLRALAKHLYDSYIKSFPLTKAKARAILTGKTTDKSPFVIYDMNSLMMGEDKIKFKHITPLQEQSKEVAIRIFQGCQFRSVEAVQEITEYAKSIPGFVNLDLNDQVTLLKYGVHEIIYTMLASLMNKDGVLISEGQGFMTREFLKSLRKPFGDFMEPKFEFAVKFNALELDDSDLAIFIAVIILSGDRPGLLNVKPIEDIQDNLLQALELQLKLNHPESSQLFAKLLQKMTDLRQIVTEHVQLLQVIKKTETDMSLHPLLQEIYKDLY

[4] = Dissociation constant, pKa of the compound; format: physicochemical
[5] = Clearance in human liver microsomes at 1 umol/L after 2 hrs by HPLC analysis in absence of NADPH; format: ADME, Microsome; settings: read-out: CLH
[6] = Clearance in rat liver microsomes at 1 umol/L after 2 hrs by HPLC analysis in absence of NADPH; format: ADME, Microsome; settings: read-out: CLH
[7] = target: T2, Peroxisome proliferator-activated receptor alpha (Homo sapiens, UniProt Q07869); experiment: Transactivation of human PPARalpha expressed in african green monkey COS1 cells after 1 day by luciferase reporter gene assay; format: cell-based, COS-1
T2 sequence (Q07869 whole entry): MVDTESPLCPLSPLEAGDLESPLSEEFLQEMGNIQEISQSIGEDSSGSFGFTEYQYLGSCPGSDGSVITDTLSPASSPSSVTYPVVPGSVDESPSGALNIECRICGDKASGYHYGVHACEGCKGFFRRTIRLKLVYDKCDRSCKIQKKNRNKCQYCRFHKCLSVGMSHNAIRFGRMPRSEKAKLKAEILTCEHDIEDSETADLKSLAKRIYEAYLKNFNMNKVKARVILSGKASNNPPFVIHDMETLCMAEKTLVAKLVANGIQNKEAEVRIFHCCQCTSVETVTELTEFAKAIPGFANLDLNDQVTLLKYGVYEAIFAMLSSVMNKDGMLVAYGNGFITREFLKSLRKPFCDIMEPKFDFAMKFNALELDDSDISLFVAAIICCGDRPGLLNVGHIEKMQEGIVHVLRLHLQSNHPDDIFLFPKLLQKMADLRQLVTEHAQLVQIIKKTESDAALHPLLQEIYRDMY

[8] = target: T3, Peroxisome proliferator-activated receptor delta (Homo sapiens, UniProt Q03181); experiment: Transactivation of human PPARdelta expressed in african green monkey COS1 cells after 1 day by luciferase reporter gene assay; format: cell-based, COS-1
T3 sequence (Q03181 whole entry): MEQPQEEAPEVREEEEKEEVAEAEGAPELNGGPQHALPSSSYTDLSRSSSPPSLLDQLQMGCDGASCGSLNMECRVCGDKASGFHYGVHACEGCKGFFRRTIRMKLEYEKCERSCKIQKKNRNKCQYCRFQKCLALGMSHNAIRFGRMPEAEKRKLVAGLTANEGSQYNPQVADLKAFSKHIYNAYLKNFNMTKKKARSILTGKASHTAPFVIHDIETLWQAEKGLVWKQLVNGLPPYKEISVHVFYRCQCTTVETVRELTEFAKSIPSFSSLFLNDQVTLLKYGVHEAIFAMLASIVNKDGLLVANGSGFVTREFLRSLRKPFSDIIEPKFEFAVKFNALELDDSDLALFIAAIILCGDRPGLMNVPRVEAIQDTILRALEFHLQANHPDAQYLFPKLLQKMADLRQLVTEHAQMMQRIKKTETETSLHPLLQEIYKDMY

[9] = target: T1, Peroxisome proliferator-activated receptor gamma; experiment: Displacement of [3H]-AD-5061 from human GST-tagged PPARgamma
Rattus norvegicus [10] = experiment: Antidiabetic activity in po dosed Wistar fatty rat type 2 diabetes model assessed as reduction on plasma glucose level administered once daily for 7 days measured by autoanalyzer relative to control; format: functional; settings: 168 h
Rattus norvegicus [11] = experiment: Antidiabetic activity in po dosed Wistar fatty rat type 2 diabetes model assessed as reduction on plasma triglyceride level administered once daily for 7 days measured by autoanalyzer relative to control; format: functional; settings: 168 h
[12] = Cmax in Wistar fatty rat at 0.18 mg/kg, po; format: ADME, organism-based; parameters: dose 0.18 mg/kg, route oral; settings: in vivo
[13] = AUC (0 to 24 hrs) in Wistar fatty rat at 0.18 mg/kg, po; format: ADME, organism-based; parameters: time < 24 hr, dose 0.18 mg/kg, route oral; settings: plasma

Structure (SMILES) | microsomal CLint at 1 µM [1] [µL/min/mg] | microsomal CLint at 1 µM [2] [µL/min/mg] | EC50 [3] [nM] | other results
CCCCCS(=O)(=O)NC(=O)/C(C)=C/c1ccc(OCCOC)cc1Oc1ncc(C(F)(F)F)cc1Cl | 20 | 20 |  | 
CCCCCNS(=O)(=O)NC(=O)CCc1ccc(OCCOC)cc1Oc1ncc(C(F)(F)F)cc1Cl | 70 | 111 |  | 
CCCCCS(=O)(=O)NC(=O)/C=C/c1ccc(OCCCOC)cc1Oc1ncc(C(F)(F)F)cc1Cl | 16 | 15 |  | 
CCCCCS(=O)(=O)NC(=O)/C=C/c1ccc(OCCO)cc1Oc1ncc(C(F)(F)F)cc1Cl | < 1 | < 1 |  | 
CCCCCS(=O)(=O)NC(=O)/C=C/c1ccc(OCCC(C)=O)cc1Oc1ncc(C(F)(F)F)cc1Cl | 30 | 19 | 59 | 
CCCCCS(=O)(=O)NC(=O)/C=C/c1ccc(OCCCS(C)(=O)=O)cc1Oc1ncc(C(F)(F)F)cc1Cl | 6 | < 1 | 320 | 
CCCCCS(=O)(=O)NC(=O)/C=C/c1ccc(OCCCC#N)cc1Oc1ncc(C(F)(F)F)cc1Cl | 23 | 19 |  | 
CCCCCNC(=O)CCc1ccc(OC(C)C)cc1Oc1ncc(C(F)(F)F)cc1Cl |  |  | 290 | 
CCCCCS(=O)(=O)NCCCc1ccc(OCCOC)cc1Oc1ncc(C(F)(F)F)cc1Cl | 210 | 204 | 32 | 
CCCCOC(=O)NCCCc1ccc(OCCOC)cc1Oc1ncc(C(F)(F)F)cc1Cl |  |  | 38 | 
CCCCNC(=O)OCCCc1ccc(OCCOC)cc1Oc1ncc(C(F)(F)F)cc1Cl |  |  | 48 | 
CCCCCS(=O)(=O)NC(=O)OCCCc1ccc(OCCOC)cc1Oc1ncc(C(F)(F)F)cc1Cl | 90 | 35 |  | pKa [4]: 4.6
CCCCCS(=O)(=O)NC(=O)CCc1ccccc1Oc1ncc(C(F)(F)F)cc1Cl | 78 | 120 | 61 | 
CCCCCS(=O)(=O)NC(=O)CCc1ccc(OC(C)C)cc1Oc1ncc(C(F)(F)F)cc1Cl | 57 | 94 |  | 
CCCCCS(=O)(=O)NC(=O)CCc1ccc(OCCOC)cc1Oc1ncc(C(F)(F)F)cc1Cl | 77 | 62 |  | metabolised at 2 h, 1 µM [5]: 50.1%; metabolised at 2 h, 1 µM [6]: 13.6%; pKa [4]: 4.6
CCCCCS(=O)(=O)NC(=O)CCc1ccc(OCC(=O)N(CC)CC)cc1Oc1ncc(C(F)(F)F)cc1Cl | 95 | 92 |  | 
CCCCCS(=O)(=O)NC(=O)CCc1ccc(OCCN2CCCC2=O)cc1Oc1ncc(C(F)(F)F)cc1Cl | 78 | 104 |  | 

Structure (SMILES) | microsomal CLint at 1 µM [1] [µL/min/mg] | microsomal CLint at 1 µM [2] [µL/min/mg] | EC50 [3] [nM] | other results
COCCCS(=O)(=O)NC(=O)CCc1ccc(OCCOC)cc1Oc1ncc(C(F)(F)F)cc1Cl | 7 | 11 | 11 | 
COCCOc1ccc(CCC(=O)NS(=O)(=O)c2ccccc2)c(Oc2ncc(C(F)(F)F)cc2Cl)c1 |  |  | 32 | 
COCCOc1ccc(CCC(=O)NS(=O)(=O)c2ccc(Cl)cc2)c(Oc2ncc(C(F)(F)F)cc2Cl)c1 | 67 | 71 | 8.6 | 
CCCCCS(=O)(=O)NC(=O)/C=C/c1ccc(OCCOC)cc1Oc1ncc(C(F)(F)F)cc1Cl | 9 | 6 |  | EC50 [7]: > 10000 nM; EC50 [8]: > 10000 nM; metabolised at 2 h, 1 µM [5]: 94.8%; metabolised at 2 h, 1 µM [6]: 87.3%; IC50 [9]: 330 nM; ED25 (Rattus norvegicus [10]): 0.17 mg/kg; ED25 (Rattus norvegicus [11]): 0.2 mg/kg; Cmax [12]: 946 ng/mL; AUC(0-t) at 24 h [13]: 15300 ng·h/mL
CCCCCS(=O)(=O)NC(=O)C(C)Cc1ccc(OCCOC)cc1Oc1ncc(C(F)(F)F)cc1Cl (stereo not drawn) | 128 | 189 |  | 
CCCCCS(=O)(=O)NC(=O)C(C)(C)Cc1ccc(OCCOC)cc1Oc1ncc(C(F)(F)F)cc1Cl | 113 | 78 |  | 
CCCCCS(=O)(=O)NC(=O)C1CC1c1ccc(OCCOC)cc1Oc1ncc(C(F)(F)F)cc1Cl (stereo not drawn) | 40 |  | 5.5 | hepatic extraction ratio at 20 min, 1 µM [2]: 0.26; metabolised at 2 h, 1 µM [5]: 73.8%; metabolised at 2 h, 1 µM [6]: 81.7%
CCCCCS(=O)(=O)NC(=O)C(Cc1ccc(OCCOC)cc1Oc1ncc(C(F)(F)F)cc1Cl)OC (stereo not drawn) | 72 | 15 |  | 
CCCCCS(=O)(=O)NC(=O)OCc1ccc(OCCOC)cc1Oc1ncc(C(F)(F)F)cc1Cl | 23 | 31 |  | 
CCCCCS(=O)(=O)NC(=O)/C=C/c1ccc(OCCOC)cc1Oc1ccc(C(F)(F)F)cc1Cl | 14 | 10 | 94 | 
CCCCCS(=O)(=O)NC(=O)/C=C/c1ccc(OCCOC)cc1Oc1ccc(C(F)(F)F)cn1 | < 1 | < 1 | > 10000 | 
CCCCCS(=O)(=O)NC(=O)/C=C/c1ccc(OCCOC)cc1Oc1ncccc1Cl | 18 | 15 | > 10000 | 
CCCCCS(=O)(=O)NC(=O)/C=C/c1ccc(OCCOC)cc1Oc1ncc(Cl)cc1Cl | 9 | 9 | 190 | 
CCCCCS(=O)(=O)NC(=O)/C=C/c1ccc(OCCOC)cc1Oc1ncc(NC(C)=O)cc1C |  |  | > 10000 | 
CCCCCS(=O)(=O)NC(=O)/C=C/c1ccc(OC(C)C)cc1Oc1ncc(C(F)(F)F)cc1Cl | 19 | 19 |  | 
CCCCCS(=O)(=O)NC(=O)/C=C/c1ccc(OCCOC2CC2)cc1Oc1ncc(C(F)(F)F)cc1Cl | 25 | 17 |  | 
CCCCCS(=O)(=O)NC(=O)/C=C/c1ccc(OCCOC)cc1Oc1ncc(N)cc1C |  |  | > 10000 | 
